Source: patent US10894772B2, “Flavor modulator having pyridine derivative or salt thereof as active ingredient” (T. HASEGAWA CO., LTD., priority 2015, dated 2021)

Tests used:
Format in all cases: in vivo
[1] = system: panelists; test: Flavor evaluation of ethanol solution (bottle mouth and flavor paper); conditions: 0.1% ethanol solution, average evaluation of 5 panelists
Description: (§1) A 1% ethanol solution of the invention products 1 to 6 prepared in Examples 1 to 6 was prepared as an evaluation solution. The evaluation solution was prepared in a sample bottle. Regarding the flavor of the sample smelling from the bottle mouth and the flavor of a flavor paper prepared by infiltrating the evaluation solution into a paper, well-trained 5 panelists tested the solution for flavor evaluation.
as §1, with “0.1%” for “1%”, “product 101 (2-(3-benzyloxypropyl)pyridine)” for “products 1 to 6”, “Example 101” for “Examples 1 to 6”, “evaluation. A typical evaluation of the product is as follows.” for “evaluation.”

[2] = system: panelists; test: Confirmation of umami and saltiness enhancement in edible salt and MSG solution; conditions: 10 ppb added to aqueous 0.3 mass % edible salt and 0.03 mass % sodium glutamate (MSG); 5 panelists
From the text: Well-trained 5 panelists tasted an aqueous solution of 0.3 mass % edible salt and 0.03 mass % sodium glutamate (MSG), and aqueous solutions prepared by adding to the aqueous solution, 10 ppb of any of the invention products 1 to 6, for organoleptic evaluation in point of umami and saltiness enhancement.
(§2) Well-trained 5 panelists tasted an aqueous solution of 0.3 mass % edible salt and 0.03 mass % sodium glutamate (MSG), and an aqueous solution prepared by adding to the aqueous solution, 10 ppb of 2-(3-benzyloxypropyl)pyridine (invention product 101), for organoleptic evaluation in point of umami and saltiness enhancement.
as §2, with “ppb, as 2-(3-benzyloxypropyl)pyridine therein,” for “ppb”, “the invention” for “2-(3-benzyloxypropyl)pyridine (invention”, “201 or the reference product 202,” for “101),”

[3] = system: panelists; test: Confirmation of umami enhancing effect in sodium inosinate solution; conditions: 10 ppb added to aqueous 0.1 mass % sodium inosinate solution; 5 panelists
From the text: Well-trained 5 panelists tasted an aqueous solution of 0.1 mass % sodium inosinate (5′-IMP⋅2Na), and aqueous solutions prepared by adding to the aqueous 0.1 mass % sodium inosinate solution, 10 ppb of any of the invention products 1 to 6, for organoleptic evaluation in point of umami.
Well-trained 5 panelists tasted an aqueous solution of 0.1 mass % sodium inosinate (5′-IMP⋅2Na), and an aqueous solution prepared by adding thereto 10 ppb of 2-(3-benzyloxypropyl)pyridine (invention product 101), for organoleptic evaluation in point of umami.
Well-trained 5 panelists tasted (1) 0.1 mass % sodium inosinate (5′-IMP⋅2Na) and (2) an aqueous solution of 0.1 mass % sodium inosinate and 5 ppb, as 2-(3-benzyloxypropyl)pyridine therein, of the invention product 201, for organoleptic evaluation in point of umami.

[4] = system: panelists; test: Confirmation of sweetness enhancing effect in sucrose solution; conditions: 5 ppb added to aqueous 3 mass % sucrose solution; 5 panelists
From the text: Well-trained 5 panelists tasted an aqueous 3 mass % sucrose solution, and aqueous solutions prepared by adding to the aqueous 3 mass % sucrose solution, 5 ppb of any of the invention products 1 to 6, for organoleptic evaluation in point of sweetness.
Well-trained 5 panelists tasted an aqueous 3 mass % sucrose solution, and an aqueous solution prepared by adding thereto 5 ppb of 2-(3-benzyloxypropyl)pyridine (invention product 101), for organoleptic evaluation in point of sweetness.
Well-trained 5 panelists tasted (1) an aqueous 3 mass % sucrose solution and (2) an aqueous solution prepared by adding […], as 2-(3-benzyloxypropyl)pyridine therein, of the invention product 201 to the aqueous 3 mass % sucrose solution, for organoleptic evaluation in point of sweetness.

[5] = system: panelists; test: Addition to soup broth for udon noodle; conditions: 0.05 ppm added to commercial soup broth for udon noodle; 100 ml diluted with 200 ml hot water; 5 panelists
Description: (§3) 0.05 ppm of any of the invention products 1 to 6 was added to commercially-available soup broth for udon noodle (tripe strength). 200 ml of hot water was added to 100 ml of each of the added soup broth and the non-added soup broth, and well-trained 5 panelists tasted them for organoleptic evaluation in point of umami.
as §3, with “2-(3-benzyloxypropyl)pyridine (invention product 101)” for “any of the invention products 1 to 6”
as §3, with “as 2-(3-benzyloxypropyl)pyridine therein” for “of any”, “product 201” for “products 1 to 6”

[6] = system: panelists; test: Confirmation of umami in water (organoleptic evaluation of taste and flavor in words); conditions: for Organoleptic Evaluation Taste / Organoleptic Evaluation Flavor: average of 5 panelists
Description: A solution was prepared by dissolving 2-(3-benzyloxypropyl)pyridine (invention product 101) in water to have a concentration shown in Table 15. As a comparative product, a solution was prepared by dissolving 2-(2-benzyloxyethyl)pyridine (comparative product 1 prepared in Comparative Example 1) to have the same concentration. Well-trained 5 panelists tasted the solutions and non-added water for organoleptic evaluation of taste and flavor.
The invention product 101 and the comparative product 1 were individually diluted with ethanol to have a proper concentration, and then further diluted with water to prepare an aqueous solution of 2-(3-benzyloxypropyl)pyridine (invention product 101 produced in Example 101) and that of 2-(2-benzyloxyethyl)pyridine (comparative product synthesized in Comparative Example 1) each having a concentration shown in the following Table 21. Well-trained panelists tasted the solution having a different concentration and non-added water for organoleptic evaluation in point of taste and flavor. […]

[7] = system: panelists; test: Confirmation of umami imparting and saltiness enhancing effect in 0.3 mass % sodium chloride (evaluation in words)
Description: An aqueous 0.3 mass % sodium chloride solution (control), and solutions of 2-(3-benzyloxypropyl)pyridine dissolved in a 0.3 mass % sodium chloride solution to have the concentration shown in Table 17 were prepared. As comparative products, an aqueous 0.3 mass % sodium chloride solution (control), and a solution of a comparative product, 2-(2-benzyloxyethyl)pyridine dissolved in a 0.3 mass % sodium chloride solution to have the same concentration were prepared. Well-trained 5 panelists tasted the solutions for organoleptic evaluation of umami impartment and saltiness enhancement.
An aqueous 0.3 mass % sodium chloride solution (control), and solutions of the invention product 201 or the reference product 202 dissolved in a 0.3 mass % sodium chloride solution to have the concentration as 2-(3-benzyloxypropyl)pyridine therein shown in the following Table 23 were prepared. Well-trained 5 panelists tasted the solutions for organoleptic evaluation of umami impartment and saltiness enhancement.

[8] = system: panelists; test: Confirmation of umami enhancing effect: comparison with edible salt and 0.05 mass % MSG solution; conditions: 10 ppb with 0.3 mass % edible salt in water; 5 panelists; Example 110
From the text: Well-trained 5 panelists tasted an aqueous solution of 0.3 mass % edible salt and 0.05 mass % sodium glutamate (MSG), and an aqueous solution of 0.3 mass edible salt and 10 ppb of 2-(3-benzyloxypropyl)pyridine (invention product 101), for organoleptic evaluation of umami.
Well-trained 5 panelists tasted (1) an aqueous solution of 0.3 mass % edible salt and 0.05 mass % sodium glutamate (MSG), and (2) and an aqueous solution of 0.3 mass % edible salt and […], as 2-(3-benzyloxypropyl)pyridine therein, of the invention product 201, for organoleptic evaluation in point of umami.

[9] = aqueous solution, Reference Example 201
[10] = in 0.3 mass % sodium chloride solution, Example 108

Structure (SMILES): c1ccc(COCCCc2ccccn2)cc1 [invention product 101, 2-(3-benzyloxypropyl)pyridine]
- Flavor Evaluation [1]: somewhat herbal, green and nutty flavor of natural impression
- umami and saltiness compared with the non-added solution [2]: stronger umami and saltiness
- umami compared with the non-added solution [3]: stronger umami
- sweetness compared with the non-added solution [4]: stronger sweetness
- umami, saltiness and sweetness compared with non-added soup broth [5]: stronger umami, saltiness and sweetness
- Organoleptic Evaluation Taste ([6]; 0.1 ppm dissolved in water, Example 107): Weakly umami.
- Organoleptic Evaluation Taste ([6]; 0.1 ppm, diluted with ethanol, then with water, Reference Example 201): Weakly umami.
- Organoleptic Evaluation Flavor ([6]; 2 ppb dissolved in water, Example 107): Nothing at all.
- Organoleptic Evaluation Flavor ([6]; 2 ppb, diluted with ethanol, then with water, Reference Example 201): Nothing at all.
- Organoleptic Evaluation Taste ([6]; 10 ppb dissolved in water, Example 107): Slightly umami
- Organoleptic Evaluation Taste ([6]; 10 ppb, diluted with ethanol, then with water, Reference Example 201): Slightly umami.
- Organoleptic Evaluation Taste ([6]; 20 ppm dissolved in water, Example 107): Strongly umami.
- Organoleptic Evaluation Taste ([6]; 20 ppm, diluted with ethanol, then with water, Reference Example 201): Strongly umami.
- concentration to provide the same umami intensity relative to that of 2-(2-benzyloxyethyl)pyridine [6, 9]: about 1/10
- umami imparting effect relative to 2-(2-benzyloxyethyl)pyridine [6, 9]: ~10 times
- concentration to provide the same umami intensity relative to that of 2-(2-benzyloxyethyl)pyridine ([6]; in water, Example 107): about 1/10
- Organoleptic Evaluation (umami impartment and saltiness enhancement) ([7]; 1 ppb in 0.3 mass % sodium chloride solution, average of 5 panelists, Example 108): Slightly umami as compared with control.
- concentration providing umami in 0.3 mass % sodium chloride solution relative to that of the solution in water ([7]; Example 108): about 1/10
- concentration providing umami in 0.3 mass % sodium chloride solution relative to that of the solution in water ([7]; Example 203): about 1/10
- concentration to realize the same degree of umami intensity relative to that of 2-(2-benzyloxyethyl)pyridine [7, 10]: about 1/10
- umami imparting effect relative to 2-(2-benzyloxyethyl)pyridine (comparative product 1) [7, 10]: about 10 times
- umami compared with aqueous 0.3 mass % edible salt and 0.05 mass % sodium glutamate (MSG) [8]: umami of almost the same level
